Data: patent publication US20250313548A1 (Actio Biosciences, Inc., priority 2023, published 2025)

Target: human, KCNT1 (Homo sapiens (Human), UniProt Q5JUK3)
Assay: FLIPR Tl/K Flux Assay
Format: cell-based
Details: HEK293 cells stably expressing human KCNT1; Tl+ flux stimulated with EC80 of agonist Loxapine
In short: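 Inhibition values come from a Hill-equation fit of % inhibition versus log concentration, using normalized fluorescence (Fmax/Fmin) over a 160 s read. The read followed stimulation with Tl+ plus EC80 agonist loxapine after 30 min compound pre-incubation at 25 °C. Cells were KCNT1-expressing HEK293, dye-loaded 1 h in pH 7.4 HEPES/HBSS with 5 mM probenecid.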

Sequence of human, KCNT1 (Q5JUK3 whole entry): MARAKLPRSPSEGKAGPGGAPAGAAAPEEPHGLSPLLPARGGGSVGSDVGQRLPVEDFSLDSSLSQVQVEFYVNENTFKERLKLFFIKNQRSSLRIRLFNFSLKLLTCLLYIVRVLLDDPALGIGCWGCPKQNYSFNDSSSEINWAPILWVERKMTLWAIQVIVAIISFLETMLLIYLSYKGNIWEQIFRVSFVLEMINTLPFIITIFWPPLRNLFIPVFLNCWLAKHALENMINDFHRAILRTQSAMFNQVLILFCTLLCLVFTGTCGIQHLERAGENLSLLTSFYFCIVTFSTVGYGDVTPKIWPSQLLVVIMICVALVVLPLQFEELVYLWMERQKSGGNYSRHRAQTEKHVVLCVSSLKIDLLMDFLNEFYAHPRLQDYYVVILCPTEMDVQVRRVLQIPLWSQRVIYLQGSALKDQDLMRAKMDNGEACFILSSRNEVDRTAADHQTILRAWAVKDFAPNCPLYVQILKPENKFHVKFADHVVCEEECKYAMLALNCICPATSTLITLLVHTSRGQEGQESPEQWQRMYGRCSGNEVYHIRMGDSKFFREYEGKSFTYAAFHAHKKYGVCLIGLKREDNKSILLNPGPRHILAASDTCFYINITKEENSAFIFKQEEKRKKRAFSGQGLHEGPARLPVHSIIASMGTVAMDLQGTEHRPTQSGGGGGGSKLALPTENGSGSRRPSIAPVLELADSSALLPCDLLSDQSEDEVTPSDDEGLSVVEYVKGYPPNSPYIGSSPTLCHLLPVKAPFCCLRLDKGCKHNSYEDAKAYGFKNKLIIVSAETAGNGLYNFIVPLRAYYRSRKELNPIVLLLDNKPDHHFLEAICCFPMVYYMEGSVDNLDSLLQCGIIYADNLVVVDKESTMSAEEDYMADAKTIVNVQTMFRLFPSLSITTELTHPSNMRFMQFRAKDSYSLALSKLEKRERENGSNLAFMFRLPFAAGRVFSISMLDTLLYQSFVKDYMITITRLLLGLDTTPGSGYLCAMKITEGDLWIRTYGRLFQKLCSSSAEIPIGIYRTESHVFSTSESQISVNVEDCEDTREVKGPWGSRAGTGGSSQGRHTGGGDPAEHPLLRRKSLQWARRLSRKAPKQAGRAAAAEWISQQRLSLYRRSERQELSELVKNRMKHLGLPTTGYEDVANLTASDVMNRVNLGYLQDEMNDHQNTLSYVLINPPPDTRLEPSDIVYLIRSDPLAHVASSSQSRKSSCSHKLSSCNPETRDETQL

SMILES	IC50 [µM]
CCOc1cc(-n2cc3c(n2)CCCC3NC(=O)c2cc(C(F)(F)F)ccc2C)ccn1 (racemic) [Compound I-28, (rac)-N-(2-(2-Ethoxypyridin-4-yl)-4,5,6,7-tetrahydro-2H-indazol-4-yl)-2-methyl-5-(trifluoromethyl)benzamide]	0.25 to 0.5
N#Cc1cccc(C(=O)NC2CCCCC3OC(c4ccnc(C(F)(F)F)c4)=NC23)c1 (stereo not shown) [Compound I-477]	< 0.25
N#Cc1cccc(C(=O)N[C@H]2CCCCc3oc(-c4ccnc(C(F)(F)F)c4)nc32)c1 [Compound I-160a, (S)-3-cyano-N-(2-(2-(trifluoromethyl)pyridin-4-yl)-5,6,7,8-tetrahydro-4H-cyclohepta[d]oxazol-4-yl)benzamide]	< 0.25
O=C(N[C@H]1CCCc2oc(-c3ccnc(C(F)(F)F)c3)nc21)c1cn(C(F)(F)F)nc1C(F)(F)F [Compound I-520a, (S)-1,3-bis(trifluoromethyl)-N-(2-(2-(trifluoromethyl)pyridin-4-yl)-4,5,6,7-tetrahydrobenzo[d]oxazol-4-yl)-1H-pyrazole-4-carboxamide]	< 0.25
O=C(N[C@H]1CCc2nn(-c3ccnc(C(F)(F)F)c3)cc21)c1cnc(C(F)(F)F)cn1 [Compound I-564a, (S)-5-(Trifluoromethyl)-N-(2-(2-(trifluoromethyl)pyridin-4-yl)-2,4,5,6-tetrahydrocyclopenta[c]pyrazol-4-yl)pyrazine-2-carboxamide]	< 0.25
COc1cc(-c2cc3n(n2)CC[C@@H]3NC(=O)c2cnn(C(F)(F)F)c2)c(F)cn1 [Compound I-577a, (S)-N-(2-(5-Fluoro-2-methoxypyridin-4-yl)-5,6-dihydro-4H-pyrrolo[1,2-b]pyrazol-4-yl)-1-(trifluoromethyl)-1H-pyrazole-4-carboxamide]	< 0.25
O=C(N[C@H]1CCCn2nc(-c3ccnc(C(F)(F)F)c3)cc21)c1cnn(C(F)(F)F)c1C(F)(F)F [Compound I-529a, (S)-1,5-bis(trifluoromethyl)-N-(2-(2-(trifluoromethyl)pyridin-4-yl)-4,5,6,7-tetrahydropyrazolo[1,5-a]pyridin-4-yl)-1H-pyrazole-4-carboxamide]	< 0.25
Cn1nc(C(F)(F)F)nc1C(=O)N[C@H]1CCCCn2nc(-c3ccnc(C(F)(F)F)c3)cc21 [Compound I-324a, (S)-1-Methyl-3-(trifluoromethyl)-N-(2-(2-(trifluoromethyl)pyridin-4-yl)-5,6,7,8-tetrahydro-4H-pyrazolo[1,5-a]azepin-4-yl)-1H-1,2,4-triazole-5-carboxamide]	< 0.25
O=C(N[C@H]1CCc2cnc(-c3ccnc(C(F)(F)F)c3)cc21)c1cncc(C(F)(F)F)n1 [Compound I-197a, (S)-6-(trifluoromethyl)-N-(3-(2-(trifluoromethyl)pyridin-4-yl)-6,7-dihydro-5H-cyclopenta[c]pyridin-5-yl)pyrazine-2-carboxamide]	> 1
O=C(N[C@H]1CCCc2nc(-c3cc(C4CC4)ncc3F)oc21)c1ccnc(OC(F)(F)F)c1 [Compound I-158a, (S)-N-(2-(2-Cyclopropyl-5-fluoropyridin-4-yl)-4,5,6,7-tetrahydrobenzo[d]oxazol-7-yl)-2-(trifluoromethoxy)isonicotinamide]	< 0.25
O=C(N[C@H]1CCc2nn(-c3ccnc(C(F)(F)F)c3)cc21)c1cc(F)cc(F)c1 [Compound I-100a]	< 0.25
Cn1nc(C(F)(F)F)cc1C(=O)N[C@H]1CCc2nn(-c3ccnc(C4(C)CC4)c3)cc21 [Compound I-75a, (S)-1-Methyl-N-(2-(2-(1-methylcyclopropyl)pyridin-4-yl)-2,4,5,6-tetrahydrocyclopenta[c]pyrazol-4-yl)-3-(trifluoromethyl)-1H-pyrazole-5-carboxamide]	< 0.25
O=C(N[C@H]1CCn2nc(-c3cc(C(F)(F)F)ncc3F)cc21)C1CC2(CC2)C1 [Compound I-522a, (S)—N-(2-(5-Fluoro-2-(trifluoromethyl)pyridin-4-yl)-5,6-dihydro-4H-pyrrolo[1,2-b]pyrazol-4-yl)spiro[2.3]hexane-5-carboxamide]	< 0.25
CC12CC(C(=O)N[C@H]3CCn4nc(-c5cc(C(F)(F)F)ncc5F)cc43)(C1)C2 [Compound I-524a, (S)-N-(2-(5-Fluoro-2-(trifluoromethyl)pyridin-4-yl)-5,6-dihydro-4H-pyrrolo[1,2-b]pyrazol-4-yl)-3-methylbicyclo[1.1.1]pentane-1-carboxamide]	< 0.25
O=C(N[C@H]1CCCc2nn(-c3ccnc(C4CC4)c3)cc21)c1cc(Cl)cc(C(F)(F)F)c1 [Compound I-5a]	< 0.25
O=C(N[C@H]1CCc2cnc(-c3ccnc(C(F)(F)F)c3)cc21)c1cc2cccnn2c1 [Compound I-340a]	> 1
COc1cc(-c2nc3c(o2)[C@@H](NC(=O)c2cccc(C(F)(F)F)c2)CCC3)ccn1 [Compound I-168a, (S)-N-(2-(2-Methoxypyridin-4-yl)-4,5,6,7-tetrahydrobenzo[d]oxazol-7-yl)-3-(trifluoromethyl)benzamide]	< 0.25
CCn1nc(C(F)(F)F)cc1C(=O)NC1CCCc2nn(-c3ccnc(C(F)(F)F)c3)cc21 (racemic) [Compound I-7, (rac)-1-Ethyl-3-(trifluoromethyl)-N-(2-(2-(trifluoromethyl)pyridin-4-yl)-4,5,6,7-tetrahydro-2H-indazol-4-yl)-1H-pyrazole-5-carboxamide]	< 0.25
Cn1nc(C(F)(F)F)cc1C(=O)NC1CCCc2nn(-c3ccn4ccnc4c3)cc21 (racemic) [Compound I-34, (rac)-N-(2-(Imidazo[1,2-a]pyridin-7-yl)-4,5,6,7-tetrahydro-2H-indazol-4-yl)-1-methyl-3-(trifluoromethyl)-1H-pyrazole-5-carboxamide]	> 1
CC(F)(F)c1cc(-c2nc3c(o2)CCCC3NC(=O)c2cc(C(F)(F)F)n(C(F)F)n2)ccn1 (single isomer, unassigned) [Compound I-534]	< 0.25
Cn1nc(C(F)(F)F)cc1C(=O)N[C@H]1CCCc2oc(-c3cc(C4CC4)ncc3F)nc21 [Compound I-217a, (S)-N-(2-(2-Cyclopropyl-5-fluoropyridin-4-yl)-4,5,6,7-tetrahydrobenzo[d]oxazol-4-yl)-1-methyl-3-(trifluoromethyl)-1H-pyrazole-5-carboxamide]	< 0.25
O=C(N[C@H]1CCCc2oc(-c3ccnc(C4CC4)c3)nc21)c1cn(C(F)(F)F)nc1C(F)F [Compound I-505a, (S)—N-(2-(2-Cyclopropylpyridin-4-yl)-4,5,6,7-tetrahydrobenzo[d]oxazol-4-yl)-3-(difluoromethyl)-1-(trifluoromethyl)-1H-pyrazole-4-carboxamide]	< 0.25
O=C(N[C@H]1CCn2nc(-c3cc(C(F)(F)F)ncc3F)cc21)c1ccnc(OC(F)F)c1 [Compound I-547a, (S)-2-(Difluoromethoxy)-N-(2-(5-fluoro-2-(trifluoromethyl)pyridin-4-yl)-5,6-dihydro-4H-pyrrolo[1,2-b]pyrazol-4-yl)isonicotinamide]	< 0.25
Cc1cccc(C(=O)N[C@H]2CCc3nn(-c4ccnc(C(F)(F)F)c4)cc32)c1 [Compound I-97a]	< 0.25
COc1cc(C#N)cc(C(=O)N[C@H]2CCn3nc(-c4ccnc(C(F)(F)F)c4)cc32)c1 [Compound I-258a, (S)-3-Cyano-5-methoxy-N-(2-(2-(trifluoromethyl)pyridin-4-yl)-5,6-dihydro-4H-pyrrolo[1,2-b]pyrazol-4-yl)benzamide]	< 0.25
